How the values were obtained:
hTRPV1 = hTRPV1 (Homo sapiens, UniProt Q8NER1); assay: In vitro hTRPV1 antagonism: inhibition of activation by capsaicin; format: cell-based; conditions: hTRPV1 in CHO cells, capsaicin 100 nM, FLIPR
[1] = tested on: capsaicin-induced hypothermia; assay: Capsaicin-induced hypothermia; format: in vivo; conditions: data not shown
[2] = tested on: CCI-induced cold allodynia (Bennett mouse model of neuropathic pain); assay: Analgesic activity on CCI-induced cold allodynia; format: in vivo; conditions: oral

hTRPV1, sequence (Q8NER1 whole entry): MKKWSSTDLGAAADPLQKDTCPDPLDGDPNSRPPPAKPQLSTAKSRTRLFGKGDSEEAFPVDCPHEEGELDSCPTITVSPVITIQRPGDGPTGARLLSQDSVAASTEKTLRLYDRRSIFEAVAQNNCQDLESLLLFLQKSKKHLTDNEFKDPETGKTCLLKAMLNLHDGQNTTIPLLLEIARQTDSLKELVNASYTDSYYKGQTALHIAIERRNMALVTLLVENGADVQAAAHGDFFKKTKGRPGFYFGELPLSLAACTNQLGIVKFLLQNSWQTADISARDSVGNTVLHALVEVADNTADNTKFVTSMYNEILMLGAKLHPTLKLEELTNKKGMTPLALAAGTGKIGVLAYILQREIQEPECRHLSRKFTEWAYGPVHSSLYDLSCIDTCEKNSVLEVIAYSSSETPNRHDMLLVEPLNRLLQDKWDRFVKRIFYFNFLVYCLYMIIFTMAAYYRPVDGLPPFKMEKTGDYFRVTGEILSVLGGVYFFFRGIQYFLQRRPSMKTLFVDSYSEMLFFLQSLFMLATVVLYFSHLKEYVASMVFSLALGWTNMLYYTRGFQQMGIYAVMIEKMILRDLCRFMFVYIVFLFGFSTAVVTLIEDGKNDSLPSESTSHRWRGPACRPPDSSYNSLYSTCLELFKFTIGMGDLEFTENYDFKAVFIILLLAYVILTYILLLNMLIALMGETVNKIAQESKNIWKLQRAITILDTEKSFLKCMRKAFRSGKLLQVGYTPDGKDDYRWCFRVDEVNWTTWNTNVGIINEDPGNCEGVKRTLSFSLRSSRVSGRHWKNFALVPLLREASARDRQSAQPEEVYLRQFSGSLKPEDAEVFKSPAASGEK

Molecule: CC(C(=O)NCc1ccc(C(C)(C)C)nc1OCc1ccc(F)cc1)c1ccc(NS(C)(=O)=O)c(F)c1 (centres unmarked) [Compound 23, N-((6-(tert-Butyl)-2-((4-fluorobenzyl)oxy)pyridin-3-yl)methyl)-2-(3-fluoro-4-(methylsulfonamido)phenyl)propanamide]
- hTRPV1 antagonism (in words) (hTRPV1): good antagonism

Molecule: C[C@H](C(=O)NCc1ccc(C(C)(C)C)nc1SC1CCCCC1)c1ccc(NS(C)(=O)=O)c(F)c1 [Compound 34S]
- capsaicin-induced hypothermia, % MPE ([1]; 3 mg/kg po): 46 % MPE
- capsaicin-induced hypothermia, % MPE ([1]; 10 mg/kg po): 15 % MPE
- antiallodynic effect on cold allodynia, % MPE ([2]; 3 mg/kg): greater than 50 % MPE
- in vivo functional character (in words) ([2]; 10 mg/kg): partial agonism
- antiallodynic activity (in words) ([2]; dose increased from 3 mg/kg to 10 mg/kg): decreased antiallodynic activity

Molecule: N-((6-(tert-Butyl)-2-(cyclohexyloxy)pyridin-3-yl)methyl)-2-(3-fluoro-4-(methylsulfonamido)phenyl)propanamide [Compound 21]
- hTRPV1 antagonism (in words) (hTRPV1): clear reduction in potency

Molecule: N-((6-(tert-Butyl)-2-(cyclopentyloxy)pyridin-3-yl)methyl)-2-(3-fluoro-4-(methylsulfonamido)phenyl)propanamide [Compound 20]
- hTRPV1 antagonism (in words) (hTRPV1): clear reduction in potency

Reference: article PMC6959544 (Bioorganic & medicinal chemistry, 2017)
